Columns and labels:
[1] = tested on: Symmetric di-Methyl Arginine in Z-138 cells; test: Z-138 Methylation Assay (In Cell Western for symmetric di-methyl arginine); assay type: cell-based; conditions: Homo sapiens, 96 hours incubation, symmetric di-methyl arginine normalised to DNA content, read-out: ICW EC50
Summary of the method: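 Z-138 cells were treated with compound for 96 h at 37 °C, then fixed on poly-D-lysine plates. Symmetric di-methyl arginine was detected by In-Cell Western (800 nm) with DRAQ5 DNA normalisation (700 nm). Percent inhibition used DMSO and 3 μM reference-compound controls; IC50 curves came from triplicate wells.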

Z-138 cell line = test: Z-138 Proliferation Assay (Cell Titer Glo); assay type: cell-based; conditions: Homo sapiens, 120 h; Z-138 cells, 5 days incubation, ATP (Cell Titer Glo)
Summary of the method: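 Z-138 cells in RPMI with 10% FBS exposed 5 days at 37 °C to nine-point 3-fold dilutions, top 20 μM final, 0.2% DMSO, triplicate. ATP-based CellTiter-Glo luminescence; IC50 from 4-parameter fit of normalized curves.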

Structure (SMILES)	EC50 [1] [µM]	EC50 (Z-138 cell line) [µM]
CC(=O)N1CCC(Nc2cc(C(=O)NC[C@H](O)CN3CCc4ncn(C)c4C3)ncn2)CC1 [Compound 3-30, (S)-6-((1-acetylpiperidin-4-yl)amino)-N-(2-hydroxy-3-(3-methyl-6,7-dihydro-3H-imidazo[4,5-c]pyridin-5(4H)-yl)propyl)pyrimidine-4-carboxamide]	> 1	> 5
CC(=O)N1CC(Nc2cc(C(=O)NC[C@H](O)CN3CCc4c(cnn4C)C3)ncn2)C1 [Compound 3-29]	> 1	> 5
O=C(COc1cccc2cccnc12)NCC(O)CN1CCc2ccsc2C1 (stereo not drawn) [Compound 1-5, N-(2-hydroxy-3-{4H,5H,6H,7H-thieno[2,3-c]pyridin-6-yl}propyl)-2-(quinolin-8-yloxy)acetamide]	0.101 to 1	> 5
